Source: the CheMixHub viscosity set
Where “and” joins values, the source holds several entries; their conditions need not be identical. Equal values may be shown once. ± gives the uncertainty stated by the source.

[Cl-].[Cl-].[Cl-].[Cl-].[Ti+4]
101 kPa
Conditions	viscosity [mPa·s]
293.15 K	0.827 ± 0.014
313.15 K	0.702 ± 0.012

CCOS(=O)(=O)[O-].CC[N+](CC)=C(N(C)C)N(C)C
100 kPa
Conditions	viscosity
293.15 K	190.9 ± 17 mPa·s and 190.9 ± 9 mPa·s
298.15 K	139 ± 12 mPa·s and 139 ± 5 mPa·s
303.15 K	104.9 ± 8.7 mPa·s and 104.9 ± 2.8 mPa·s
308.15 K	80.44 ± 6.6 mPa·s and 80.44 ± 1.5 mPa·s
313.15 K	63.24 ± 5.1 mPa·s and 63.24 ± 0.74 mPa·s
318.15 K	50.27 ± 4 mPa·s and 50.27 ± 0.4 mPa·s
323.15 K	40.55 ± 3.3 mPa·s and 40.55 ± 0.4 mPa·s

COC(=O)c1ccccc1
viscosity
Conditions	293.15 K	298.15 K	303.15 K	308.15 K	313.15 K	318.15 K	323.15 K
100 kPa	–	–	–	1.517 ± 0.062 mPa·s	1.373 ± 0.056 mPa·s	–	–
101 kPa	–	1.823 ± 0.057 mPa·s and 1.825 ± 0.15 mPa·s	1.656 ± 0.14 mPa·s and 1.583 ± 0.018 mPa·s	1.501 ± 0.037 mPa·s and 1.504 ± 0.047 mPa·s	1.359 ± 0.014 mPa·s and 1.371 ± 0.034 mPa·s	1.282 ± 0.032 mPa·s and 1.27 ± 0.04 mPa·s	1.222 ± 0.03 mPa·s
101.3 kPa	–	1.918 ± 0.024 mPa·s	1.778 ± 0.022 mPa·s	1.663 ± 0.021 mPa·s	1.402 ± 0.018 mPa·s	–	–
101.33 kPa	1.879 ± 0.015 mPa·s and 2.036 ± 0.12 mPa·s	1.836 ± 0.11 mPa·s and 1.825 ± 0.023 mPa·s and 1.81 ± 0.022 mPa·s	1.523 ± 0.012 mPa·s and 1.656 ± 0.021 mPa·s and 1.638 ± 0.02 mPa·s	1.521 ± 0.092 mPa·s and 1.491 ± 0.018 mPa·s	1.238 ± 0.01 mPa·s and 1.398 ± 0.085 mPa·s and 1.365 ± 0.017 mPa·s	1.253 ± 0.016 mPa·s	1.016 ± 0.009 mPa·s

CCCCCCCC(=O)OCC(COC(=O)CCCCCCC)OC(=O)CCCCCCC
101.33 kPa
Conditions	viscosity [mPa·s]
298 K	19.98 ± 0.37
303 K	16.58 ± 0.31
308 K	13.79 ± 0.25
313 K	11.57 ± 0.21

CCCC[n+]1ccn(C)c1.N#C[C-](C#N)C#N
100 kPa
Conditions	viscosity [mPa·s]
293.15 K	34.9 ± 1.8
298.15 K	27.97 ± 1.4
303.15 K	22.85 ± 1.2
308.15 K	18.98 ± 0.97
313.15 K	15.99 ± 0.82
318.15 K	13.66 ± 0.7
323.15 K	11.8 ± 0.6

CCCCCC[N+]1(C)CCCC1.O=S(=O)([N-]S(=O)(=O)C(F)(F)F)C(F)(F)F
Conditions	viscosity [mPa·s]
293.15 K, 100 kPa	136.2 ± 3.8
295.2 K, 101.3 kPa	119.8 ± 17
298.15 K, 100 kPa	102.8 ± 2.5
300.2 K, 101.3 kPa	96.8 ± 11
303.15 K, 100 kPa	79.59 ± 1.8
305.2 K, 101.3 kPa	79.6 ± 6.4
308.15 K, 100 kPa	63.07 ± 1.3
310.2 K, 101.3 kPa	64.8 ± 3.3
313.15 K, 100 kPa	51.01 ± 1.1
313.15 K, 101 kPa	52.7 ± 5.4
315.2 K, 101.3 kPa	54.2 ± 1.9
320.2 K, 101.3 kPa	45.9 ± 2.2

CNC=O
viscosity
Conditions	298.15 K	303 K	303.15 K	308.15 K	313.15 K	318.15 K	323.15 K
101 kPa	1.746 ± 0.028 mPa·s	1.475 ± 0.014 mPa·s	1.585 ± 0.074 mPa·s and 1.597 ± 0.015 mPa·s and 1.58 ± 0.025 mPa·s	1.462 ± 0.069 mPa·s and 1.473 ± 0.014 mPa·s and 1.434 ± 0.023 mPa·s	1.352 ± 0.065 mPa·s and 1.361 ± 0.013 mPa·s and 1.306 ± 0.021 mPa·s	1.255 ± 0.06 mPa·s and 1.263 ± 0.012 mPa·s and 1.191 ± 0.02 mPa·s	1.175 ± 0.011 mPa·s
101.3 kPa	1.695 ± 0.024 mPa·s	–	–	–	–	–	–
101.33 kPa	–	–	1.586 ± 0.015 mPa·s	1.463 ± 0.013 mPa·s	1.352 ± 0.013 mPa·s	1.256 ± 0.012 mPa·s	1.167 ± 0.011 mPa·s

CCCCCCCCN(CCCCCCCC)CCCCCCCC
Conditions	viscosity
298.15 K, 101.33 kPa	8.325 ± 0.24 mPa·s and 8.325 ± 0.23 mPa·s
303.15 K, 101 kPa	6.95 ± 0.14 mPa·s

CC(C)OCCO
101.33 kPa
Conditions	viscosity [mPa·s]
298.15 K	2.106 ± 0.026
308.15 K	1.649 ± 0.021
318.15 K	1.315 ± 0.017

C=CC(=O)OC(C)(C)C
viscosity [mPa·s]
Conditions	293.15 K	298.15 K	303.15 K	308.15 K	313.15 K	318.15 K
100 kPa	0.9072 ± 0.012	0.8309 ± 0.011	0.76 ± 0.011	0.701 ± 0.011	0.6485 ± 0.011	0.6034 ± 0.011
101 kPa	0.9072 ± 0.037	0.8309 ± 0.034	0.76 ± 0.031	0.701 ± 0.029	0.6485 ± 0.026	0.6034 ± 0.025

CC(=O)[O-].CCCC[N+](CC)(CC)CC
101 kPa
Conditions	viscosity [mPa·s]
298.2 K	439 ± 23
313.2 K	306.7 ± 14

CCCC[n+]1ccn(C)c1C.F[B-](F)(F)F
Conditions	viscosity [mPa·s]
298.15 K, 101 kPa	573 ± 51

c1ccc2c(c1)CCCC2
viscosity
Conditions	293.15 K	298.15 K	303.15 K	308.15 K	313.15 K	318.15 K	323.15 K
100 kPa	2.195 ± 0.047 mPa·s and 2.2 ± 0.09 mPa·s	1.985 ± 0.042 mPa·s and 1.99 ± 0.08 mPa·s	1.807 ± 0.038 mPa·s and 1.81 ± 0.07 mPa·s	1.654 ± 0.035 mPa·s and 1.66 ± 0.07 mPa·s	1.521 ± 0.032 mPa·s and 1.52 ± 0.06 mPa·s	1.403 ± 0.03 mPa·s and 1.4 ± 0.06 mPa·s	1.301 ± 0.028 mPa·s and 1.3 ± 0.05 mPa·s
101 kPa	–	1.985 ± 0.026 mPa·s	–	–	–	–	–
101.33 kPa	–	1.968 ± 0.012 mPa·s	1.778 ± 0.011 mPa·s	1.612 ± 0.01 mPa·s	1.473 ± 0.009 mPa·s	–	–
102 kPa	2.25 ± 0.03 mPa·s	–	1.85 ± 0.02 mPa·s	–	–	–	–

C[N+](C)(C)CCO.O=C([O-])c1ccccn1
Conditions	viscosity [mPa·s]
300 K, 100 kPa	558.5 ± 54

CCOCCOCCOCC
viscosity [mPa·s]
Conditions	298.15 K	308.15 K	318.15 K
101 kPa	1.268 ± 0.011	–	–
101.33 kPa	1.268 ± 0.016	1.048 ± 0.014	0.881 ± 0.012

CCCCCC(C)C
100 kPa
Conditions	viscosity [mPa·s]
293.15 K	0.5 ± 0.007
303.15 K	0.444 ± 0.007
313.15 K	0.393 ± 0.006
323.15 K	0.355 ± 0.006
